Measured values as given in patent US4190657A, “Naphthyridine derivatives” (Synthelabo, priority 1976, dated 1980).
Where two headings read alike, the source gives them in different places.

Key:
[1] = test system: curarised rats ("sleep" induced by sodium 4-hydroxy-butyrate); experiment: action on the duration of the "sleep" induced by sodium 4-hydroxy-butyrate (GHB) in curarised rats; type: in vivo, rats (male, Charles River strain); settings: for TOTAL DURATION of the "sleep" / change in vivo at 30 mg/kg / change in vivo at 10 mg/kg: GHB 200 mg/kg i.v.; for TOTAL DURATION of the "sleep": over 75 minutes, comparison 54.12 ± 2.07; for change in vivo at 30 mg/kg / change in vivo at 10 mg/kg: read-out: DIFFERENCE IN % RELATIVE TO THE CONTROLS (total duration of the "sleep")
Method: This action was determined from the influence of the compounds on the duration of the "sleep" induced by sodium 4-hydroxy-butyrate (GHB) in curarised rats.
The animals used are male rats of the Charles River strain, weighing 200±20 g. The animals, curarised by alloferin given intraperitoneally at the rate of 1 mg/kg, are placed under artificial respiration by means of a mask applied over the snout (respiration frequency: 40/minute; volume respired: 14 cc). The oesophagus is ligatured beforehand so as to avoid air entering the stomach.
Fronto-parietal and occipital cortical electrodes make it possible to record the electrocorticographic activity on a Grass model 79P polygraph at a speed of 6 mm/sec. The animals are prepared under local anaesthesia (2% xylocaine). The rats are kept at a constant temperature (37.5° C.) throughout the experiment. Ten minutes after the end of the preparation of the rat, a dose of 200 mg/kg of Na 4-hydroxybutyrate is injected intravenously into the tail. […]
The traces are evaluated for periods of 15 minutes over the course of 75 minutes after the injection of "GHB". During this period of analysis, the total duration of the "sleep" is determined. A series of 15 comparisons makes it possible precisely to define the duration of the "GHB sleep".
The statistical analysis of the results is carried out with the aid of the Mann-Whitney "U" test.

[2] = acute toxicity, 50 percent lethal dose (LD50), graphical method; settings: mouse, in vivo, Table III
[3] = as above; type: in vivo; settings: mouse, in vivo, ip, mice CD 1, intraperitoneal; Table II; read-out: ACUTE TOXICITY LD50 for intraperitoneal administration
Method: (§1) The 50 percent lethal dose (LD50) of the compounds is determined for mice of strain CD 1 by a graphical method.
(§2) The results are indicated in Table II below, for a representative number of compounds.

mice of the CD 1 strain = experiment: anoxia due to pressure reduction, survival time, mean active dose (MAD); type: in vivo, mice (CD 1 strain); settings: mice CD 1, intraperitoneal, 10 minutes before the experiment, 190 mm of mercury, Table II; for ED (100% increase in survival time): Mus musculus, ip, read-out: ANOXIA DUE TO PRESSURE REDUCTION, mean active dose (MAD), dose which increases the survival time by 100%
Method: Mice of the CD 1 strain are kept in an atmosphere depleted in oxygen, by setting up a partial vacuum (190 mm. of mercury, corresponding to 5.25% of oxygen).
The survival time of the animals is noted. This time is increased by the agents capable of favouring oxygenation in the tissues and, in particular, in the brain. The compounds studied are administered intraperitoneally in several doses 10 minutes before the experiment. The percentage increases of the survival time relative to the values obtained with control animals are calculated. The mean active dose (MAD), namely the dose which increases the survival time by 100%, is determined graphically.
The results are indicated in Table II below for a representative number of compounds.

mice of strain CD 1 = experiment: acute toxicity, 50 percent lethal dose (LD50), graphical method; type: in vivo; settings: mice CD 1, intraperitoneal; Table II
Method: as §1, §2

[4] = Rattus norvegicus, ip, 1.25 h, 30 mg/kg intraperitoneally
[5] = ip, intraperitoneal, read-out: TOXICITY intraperitoneal
[6] = iv, read-out: TOXICITY intravenous
[7] = Rattus norvegicus, ip, 1.25 h, 10 mg/kg intraperitoneally
[8] = Rattus norvegicus, ip, 1.25 h, read-out: […] % RELATIVE TO THE CONTROLS (total duration of the "sleep"), 30 mg/kg intraperitoneally
[9] = Rattus norvegicus, ip, 1.25 h, read-out: […] % RELATIVE TO THE CONTROLS (total duration of the "sleep"), 10 mg/kg intraperitoneally

| Compound | TOTAL DURATION of the "sleep" ([1]; 30 mg/kg intraperitoneally) | LD50 [2, 5] | LD50 [3] | ED (100% increase in survival time) (mice of the CD 1 strain) | other results |
| --- | --- | --- | --- | --- | --- |
| Cc1ccc2c(c1)c1c3n2C(=O)CCC3NCC1 (stereo not shown) [Compound 11] | 34.08 ± 1.21 minutes. seconds | 155 mg/kg | – | – | change in vivo at 30 mg/kg [1, 4]: -37%; LD50 [2, 6]: 105 mg/kg |
| O=C1CCC2NCCc3c2n1c1ccc(Cl)cc31 (stereo not shown) [Compound 52] | 32.35 ± 5.02 minutes. seconds | – | 165 mg/kg | 9.5 mg/kg | TOTAL DURATION of the "sleep" ([1]; 10 mg/kg intraperitoneally): 37.34 ± 3.35 minutes. seconds; change in vivo at 10 mg/kg [1, 7]: -31%; change in vivo at 30 mg/kg [1, 4]: -40%; LD50 [2, 6]: 110 mg/kg |
| CN1CCc2c3n(c4ccccc24)C(=O)CCC31 (stereo not shown) [Compound 2 (base), 1,2,3,3a,4,5-Hexahydro-3-methyl-6H-indolo[3,2,1-de][1,5]naphthyridin-6-one] | – | – | 85 mg/kg | 6 mg/kg | – |
| COC(=O)[C@@H]1CC(=O)n2c3c(c4ccccc42)CCN(C)[C@H]31 (relative stereo) [Compound 1 trans m.s., Methyl 1,2,3,3a,4,5-hexahydro-3-methyl-6-oxo-6H-indolo[3,2,1-de][1,5]naphthyridine-4-carboxylate] | – | 185 mg/kg | – | – | TOTAL DURATION of the "sleep" ([1]; 40 mg/kg intraperitoneally): 32.01 ± 2.59 minutes. seconds; change in vivo at 40 mg/kg ([1]; Rattus norvegicus, ip, 1.25 h, read-out: […] % RELATIVE TO THE CONTROLS (total duration of the "sleep")): -41%; LD50 ([2]; intravenous, read-out: TOXICITY intravenous): 47 mg/kg |
| COC(=O)[C@@H]1CC(=O)n2c3c(c4ccccc42)CCN(C)[C@@H]31 (relative stereo) [1 (m.s.cis), Methyl 1,2,3,3a,4,5-hexahydro-3-methyl-6-oxo-6H-indolo[3,2,1-de][1,5]naphthyridine-4-carboxylate] | – | – | 170 mg/kg | 4 mg/kg | – |
| CC1CCC2c3c(c4ccccc4n31)CCN2C (stereo not shown) [Compound 10] | – | – | 50 mg/kg | 6.5 mg/kg | – |
| CC(=O)CN1CCc2c3n(c4ccccc24)C(=O)CCC31 (stereo not shown) [Compound 62] | – | – | 190 mg/kg | 10 mg/kg | – |
| CCOC(=O)[C@@H]1CC(=O)n2c3c(c4ccccc42)CCN(C)[C@@H]31 (relative stereo) [30 (m.s.)] | – | – | 110 mg/kg | 9 mg/kg | – |
| CC(O)CCN1CCc2c3n(c4ccccc24)C(=O)CCC31 (single isomer, unassigned) [35 (base, isomer A)] | – | – | 150 mg/kg | 9 mg/kg | – |
| COC(=O)[C@@H]1CC(=O)n2c3c(c4cc(Cl)ccc42)CCN[C@@H]31 (relative stereo) [Compound 58 cis-isomer] | 36.08 ± 2.47 minutes. seconds | 190 mg/kg | – | – | change in vivo at 30 mg/kg [1, 8]: -33% |
| CC(=O)CCN1CCc2c3n(c4ccccc24)C(=O)CCC31 (stereo not shown) [Compound 33] | – | – | 170 mg/kg | 8 mg/kg | – |
| COc1ccc2c(c1)c1c3n2C(=O)CCC3N(C)CC1 (stereo not shown) [Compound 38] | – | – | 65 mg/kg | 8 mg/kg | – |
| CN1CCc2c3n(c4ccc(Cl)cc24)C(=O)CCC31 (stereo not shown) [Compound 53] | – | – | 150 mg/kg | 8 mg/kg | – |
| Cc1ccc2c3c4n(c2c1)C(=O)CCC4N(C)CC3 (stereo not shown) [Compound 69] | – | 88 mg/kg | – | – | TOTAL DURATION of the "sleep" ([1]; 10 mg/kg intraperitoneally): 29.46 ± 1.27 minutes. seconds; change in vivo at 10 mg/kg [1, 7]: -45% |
| O=C1CCC2NCCc3c2n1c1cccc(Cl)c31 (stereo not shown) [Compound 65] | – | 54 mg/kg | – | – | TOTAL DURATION of the "sleep" ([1]; 10 mg/kg intraperitoneally): 34.51 ± 1.42 minutes. seconds; change in vivo at 10 mg/kg [1, 7]: -36% |
| CN1CCc2c3n(c4ccccc24)C(=O)CCC31 (stereo not shown) [2 (m.s.), 1,2,3,3a,4,5-Hexahydro-3-methyl-6H-indolo[3,2,1-de][1,5]naphthyridin-6-one] | – | – | – | – | ACUTE TOXICITY LD50 for intraperitoneal administration (mice of strain CD 1): 52 mg/kg; ANOXIA DUE TO PRESSURE REDUCTION, mean active dose (MAD), dose which increases the survival time by 100% (mice of the CD 1 strain): 4.5 |
| COC(=O)CCN1CCc2c3n(c4ccccc24)C(=O)CCC31 (stereo not shown) [Compound 19] | 38.59 ± 1.20 minutes. seconds | 680 mg/kg | – | – | change in vivo at 30 mg/kg [1, 4]: -28%; LD50 [2, 6]: 103 mg/kg |
| COC(=O)[C@@H]1CC(=O)n2c3c(c4cc(Cl)ccc42)CCN[C@H]31 (relative stereo) [Compound 58 trans-isomer] | 31.12 ± 2.18 minutes. seconds | 170 mg/kg | – | – | change in vivo at 30 mg/kg [1, 8]: -42% |
| COC(=O)C1CC(=O)n2c3c(c4cc(Cl)ccc42)CCNC31 (stereo not shown) [Compound 51] | 37.51 ± 2.12 minutes. seconds | 760 mg/kg | – | – | change in vivo at 30 mg/kg [1, 8]: -30% |
| COC(=O)[C@@H]1CC(=O)n2c3c(c4ccccc42)CCN(CCC(C)=O)[C@@H]31 (relative stereo) [Compound 49 m.s.cis] | 38.51 ± 3.12 minutes. seconds | 600 mg/kg | – | – | TOTAL DURATION of the "sleep" ([1]; 10 mg/kg intraperitoneally): 35.22 ± 2.26 minutes. seconds; change in vivo at 10 mg/kg [1, 9]: -35%; change in vivo at 30 mg/kg [1, 8]: -28% |
| CCN1CCc2c3n(c4ccccc24)C(=O)CCC31 (stereo not shown) [Compound 3] | – | – | 58 mg/kg | 9 mg/kg | – |
| O=C1CCC2NCCc3c2n1c1ccc(F)cc31 (stereo not shown) [Compound 54] | 28.28 ± 4.28 minutes. seconds | 100 mg/kg | – | – | TOTAL DURATION of the "sleep" ([1]; 10 mg/kg intraperitoneally): 40.01 ± 5.00 minutes. seconds; change in vivo at 10 mg/kg [1, 7]: -26%; change in vivo at 30 mg/kg [1, 4]: -47% |
| CCCN1CCc2c3n(c4ccccc24)C(C)(O)CCC31 (stereo not shown) [Compound 22] | – | – | 105 mg/kg | 8 mg/kg | – |
| CC(=O)CCN1CCc2c3n(c4ccc(Cl)cc24)C(=O)CCC31 (stereo not shown) [Compound 56] | 30.39 ± 3.01 minutes. seconds | 575 mg/kg | – | – | TOTAL DURATION of the "sleep" ([1]; 10 mg/kg intraperitoneally): 43.07 ± 3.26 minutes. seconds; change in vivo at 10 mg/kg [1, 7]: -20%; change in vivo at 30 mg/kg [1, 4]: -43% |
| CCN1CCc2c3n(c4ccccc24)C(C)=CCC31 (stereo not shown) [Compound 26] | – | – | 67 mg/kg | 10 mg/kg | – |
| CCN1CCc2c3n(c4ccccc24)C(C)(O)CCC31 (stereo not shown) [Compound 21] | – | – | 75 mg/kg | 7 mg/kg | – |
| CCN1CCc2c3n(c4ccccc24)C(C)CCC31 (stereo not shown) [28 (m.s.)] | – | – | 40 mg/kg | 4.5 mg/kg | – |
| CC1=CCC2c3c(c4ccccc4n31)CCN2C (stereo not shown) [Compound 9, 1,2,3,3a-Tetrahydro-3,6-dimethyl-4H-indolo[3,2,1-de][1,5]naphthyridine] | – | – | 78 mg/kg | 6.5 mg/kg | – |
| COC(=O)[C@@H]1CC(=O)n2c3c(c4cc(F)ccc42)CCN(C)[C@@H]31 (relative stereo) [Compound 60 cis-isomer] | – | 725 mg/kg | – | – | TOTAL DURATION of the "sleep" ([1]; 10 mg/kg intraperitoneally): 34.22 ± 2.47 minutes. seconds; change in vivo at 10 mg/kg [1, 9]: -37% |
| CC(O)CN1CCc2c3n(c4ccccc24)C(=O)CCC31 (single isomer, unassigned) [Compound 63 isomer A] | 34.52 ± 2.14 minutes. seconds | 125 mg/kg | – | – | change in vivo at 30 mg/kg [1, 4]: -36%; LD50 [2, 6]: 75 mg/kg |
